Source: patent US20190330192A1, “SUBSTITUTED AZOLYLPYRROLONES AND AZOLYLHYDANTOINS AND SALTS THEREOF AND USE THEREOF AS HERBICIDAL ACTIVE SUBSTANCES” (Bayer CropScience Aktiengesellschaft, priority 2016, published 2019)

Target: T1, photosystem II (PS II) (Spinacia oleracea, UniProt P69560)
T1 construct: the chloroplasts were osmotically ruptured and the thylakoid membranes were then obtained by centrifugation; from tissue; host or cells: fresh spinach leaves; thylakoid membranes from isolated chloroplasts
Test: Measurement of the PS II activity in thylakoid membranes (DCPIP reduction)
Type: biochemical
Details: test compound at 100 μM; spinach thylakoid membranes; DCPIP absorption at 595 nm over 10 min at 22° C. with exposure to light; read-out: Effect (inhibition of PS II activity)
Experimental: Cooled fresh spinach leaves were comminuted and homogenized in 50 mM phosphate buffer, pH 6.8. 10 mM KCl, 0.34 M sucrose (sucrose buffer) (blender, 1 g of plant material/ml). The homogenate was subsequently filtered through 4 layers of Miracloth and the chloroplasts were isolated by centrifugation, i.e. 10 min of centrifugation at 4400×g (4° C.). The sediment was suspended in 25 ml of sucrose buffer and re-centrifuged for 10 min at 4400×g (4° C.). The sediment was then suspended in 40 ml of 50 mM phosphate buffer, pH 6.8, 10 mM KCl, without sucrose. In this step, the chloroplasts were osmotically ruptured and the thylakoid membranes were then obtained by centrifugation (10 min, 4400×g, 4° C.). The membrane sediment was finally suspended in 20 ml of 50 mM phosphate buffer, pH 6.8, 10 mM KCl. […]
The electron transfer from PS II to an artificial electron acceptor, 2,6-dichlorophenolindophenol (DCPIP), was measured with exposure to light. The concentration of the blue oxidized form of DCPIP was determined spectrophotometrically at wavelength λ=595 nm. […]
Depending on the activity of the PS II preparation, the dilution was adjusted such that the measurement of the decrease in absorption (λ=595 nm) was linear for at least 10 min. […] On each microtiter plate, a known PS II inhibitor, for example metribuzin, was used as standard, which allowed the quality of the PS II test to be assessed. […]

| inhibition at 100 µM (stock) [%] | inhibition at 100 µM [%] | SMILES |
| --- | --- | --- |
| 30 to 50 | – | CCC(=O)OC1C(C)=C(Cl)C(=O)N1c1nc(SC)n(C)n1 (centres unmarked) [1.74-185, 4-Chloro-3-methyl-1-[1-methyl-5-(methylsulfanyl)-1H-1,2,4-triazol-3-yl]-5-oxo-2,5-dihydro-1H-pyrrol-2-ylpropionate] |
| – | 50 to 70 | CC1=C(Cl)C(=O)N(c2nnn(C)n2)C1O (centres unmarked) [1.82-2, 3-Chloro-5-hydroxy-4-methyl-1-(1-methyl-1H-1,2,4,5-tetrazol-3-yl)-1,5-dihydro-2H-pyrrol-2-one] |
